Results on two compounds are retold here after PMC12970513, “Unsaturated Phosphorus Electrophiles to Probe Protein Tyrosine Phosphatases” (Angewandte Chemie (International Ed. in English), 2026).

The test system of the experiment is PTP1B in MCF-7 cell lysate. The experiment can be described thus: Lysate labeling by western blot, MCF-7. More on the design: species or system human. To be noted: 25–500 µM, 4 h, MCF-7 lysate 4 mg/mL. As to the method:
To verify a consistent labeling profile by TMR‐PO, we tested additional PTP1B‐containing mammalian lysates. […] Therefore, we attempted to identify conditions where more intense labeling is noticeable. […] Increasing reaction time led to a proportional increase in biotin‐signal overlapping with the PTP1B band. […] A 4‐h incubation was chosen for the following experiments for ease of protocol and due to the robust labeling observed.
In that respect, following a 4‐h incubation time, we tested increasing concentrations of bio‐PO up to 500 µM to further increase the labeling efficiency. […] This highlights that labeling is also consistent with the abundance of PTP1B in these cell lines, which was measured by quantitative proteomics (Figure 5b). […]
For western blot analysis, samples resolved by SDS-PAGE were transferred to a polyvinylidene difluoride (PVDF) membrane using a Trans-Blot Turbo (Bio-Rad) semi dry blotting system according to the manufacturer`s instructions. […] The HRP signal was detected using the Pierce ECL Western Blotting Substrate (ThermoFisher Scientific) and imaged using the ChemiDoc (Bio-Rad) imaging system. […] Biotin was probed against using Streptavidin-horse radish peroxidase (HRP) conjugate (Thermo Fisher Scientific, N100) at a 1:5000 dilution for 1 hour at room temperature and the HRP signal was detected as mentioned above. […]
Background: A western blot detects proteins with antibodies after separation by electrophoresis.

Consider `C#CP(=O)(O)Nc1ccc(CCNC(=O)CCCC[C@@H]2SC[C@@H]3NC(=O)N[C@@H]32)cc1` [SM-PN, N-(4-(2-biotinamidoethyl)phenyl)-P-ethynylphosphonamidic acid], for which the “labeling of MCF-7 lysate by small molecule control SM-PN” value is listed as “No labeling was observed”.
Regarding `C#CP(=O)(O)Oc1ccc(CCNC(=O)CCCC[C@@H]2SC[C@@H]3NC(=O)N[C@@H]32)cc1` [SM-PO, 4-(2-biotinamidoethyl)phenyl ethynylphosphonic acid monoester], the “labeling of MCF-7 lysate by small molecule control SM-PO” value is given as “a band with increasing intensity was apparent in the biotin signal upon concentration increase”.
